Measured values taken from patent US10196363B2, “Dihydropyrimidin-2-one compounds and medical use thereof” (JAPAN TOBACCO INC., priority 2014, dated 2019).
Where a name gives a salt, the structure may show the parent alone. Read-outs that look alike come from different tables or passages of the source.

Assays:
[1] = molecular target: T1, mouse RORγ (Mus musculus, UniProt P51450); experiment: In vitro assay of inhibitory effect against RORγ transcriptional activity (GAL4-mRORγ LBD luciferase reporter gene assay in CHO cells); assay type: cell-based
T1 construct: mouse RORγ, from Ile251 to Lys516; expressed in transfected cells; host or cells: CHO cells (Chinese hamster ovary), transient co-transfection with pG5-Luc
T1 sequence (P51450 251-516): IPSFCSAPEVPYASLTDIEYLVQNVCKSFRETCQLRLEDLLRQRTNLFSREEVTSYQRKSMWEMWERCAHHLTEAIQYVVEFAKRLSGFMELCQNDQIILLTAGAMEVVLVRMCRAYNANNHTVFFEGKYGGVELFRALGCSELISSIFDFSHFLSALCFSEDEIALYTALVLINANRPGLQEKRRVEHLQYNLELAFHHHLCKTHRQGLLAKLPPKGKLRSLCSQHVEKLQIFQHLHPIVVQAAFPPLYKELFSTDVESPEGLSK
Procedure: (§1) In Vitro Assay of Inhibitory Effect Against RORγ Transcriptional Activity
(§2) Inhibitory effect of a test article on transcriptional activity of RORγ was measured by means of the following reporter gene assay.
(§3) cDNA encoding human and mouse RORγ ligand binding domain (LBD) were obtained based on the sequences of human RORγ (Genebank registered number NM_005060.3) and mouse RORγ (Genebank registered number NM_011281.2) (LBD sequence: human RORγ, from Ser253 to Lys518; mouse RORγ, from Ile251 to Lys516).
(§4) The LBD cDNA of human or mouse RORγ was inserted into pFA-CMV vector (Strategene), which expresses GAL4-DNA binding domain fusion protein. The resulting plasmids are hereinafter referred to as GAL4-hRORγ plasmid and GAL4-mRORγ plasmid, respectively.
(§5) GAL4-hRORγ plasmid or GAL4-mRORγ plasmid was transiently co-transfected into Chinese hamster ovary cells (CHO cells) with pG5-Luc (Promega), a reporter plasmid expressing firefly luciferase depending on GAL4.
(§6) TransIT (Registered trademark) CHO transfection reagent (Mirus) was used to co-transfect GAL4-hRORγ plasmid or GAL4-mRORγ plasmid into CHO cells with pG5-Luc plasmid. One day before the assay, CHO cells were suspended in HAM F-12 Nutrient medium containing 10 v/v % fetal bovine serum and seeded at 6×10^6 cells per 175 cm^2 cell culture flask. Fifty four micro litters of TransIT (Registered trademark) CHO reagent was added into a 15 ml tube containing 1.16 mL of HAM F-12 Nutrient medium without fetal bovine serum, and mixed and incubated at room temperature for 10 min. Thirty six micro litters of plasmid solution containing the GAL4-hRORγ plasmid (400 ng), pG5-Luc plasmid (9000 ng) and pcDNA3 plasmid (8600 ng) were added into the tube and mixed gently. In case of mouse assay, a plasmid solution containing the GAL4-mRORγ plasmid (250 ng), pG5-Luc plasmid (9000 ng) and pcDNA3 plasmid (8750 ng) was added, instead. The mixture was incubated at room temperature for 10 min. Nine micro litters of CHO Mojo Reagent were then added into each tube and mixed gently. The mixture was incubated at room temperature for 10 min. The resultant transfection reagent was applied to the cell culture. After incubation at 37° C., 5% CO2 for 4 hours, the plasmid-transfected CHO cells were harvested with a trypsin treatment. The collected cells were resuspended in HAM F-12 Nutrient medium supplemented with 10 v/v % fetal bovine serum and plated into a 384-well-white plate at 8,000 cells/50 μL/well. The plate was incubated at room temperature for 1 hour and then further incubated at 37° C., 5% CO2 for 3 hours. The test articles were dissolved in dimethylsulfoxide (DMSO) to obtain a concentration of 10 mM. The resulting solution was diluted with a medium just before use and added to the cells in the plate to prepare 8 different concentrations of the test article. The final concentration of DMSO was 0.2 v/v %. After the addition of the test articles, the cells were incubated at 37° C., 5% CO2 for 2 days.
(§7) RORγ transcriptional activity was detected as the intracellular luciferase activity using SteadyLite HTS Reporter Gene Assay System (Perkin Elmer). StedyLite Reagent was diluted five-fold into a solution containing Extension reagent (10 mM Tricine, 0.2% w/v BSA, 0.02% v/v Tween-20) to obtain the luciferase substrate solution. After the measurement of the cell viability using Resazurin, the culture media in the plate were removed, and then the luciferase substrate solution was added into each well. After the incubation at room temperature for 10 minutes, luminescence of each well was measured by a microplate reader. The luciferase activity derived from the luminescence count in the vehicle-control well treated with 0.2% DMSO alone was defined as 100%, and the luciferase activity in the test article was calculated as a percentage (%-of-control) based on the value of the vehicle-control. EC50 value of test article was calculated by curve fitting with GraphPad Prism. […]

[2] = molecular target: T2, human RORγ (Homo sapiens, UniProt P51449); experiment: In vitro assay of inhibitory effect against RORγ transcriptional activity (GAL4-hRORγ LBD luciferase reporter gene assay in CHO cells); assay type: cell-based; conditions: for hRORγ luciferase activity, %-of-control: value in parentheses beside the > EC50 bound, vehicle-control 0.2% DMSO alone = 100%
T2 construct: human RORγ, from Ser253 to Lys518; expressed in transfected cells; host or cells: CHO cells (Chinese hamster ovary), transient co-transfection with pG5-Luc
T2 sequence (P51449 253-518): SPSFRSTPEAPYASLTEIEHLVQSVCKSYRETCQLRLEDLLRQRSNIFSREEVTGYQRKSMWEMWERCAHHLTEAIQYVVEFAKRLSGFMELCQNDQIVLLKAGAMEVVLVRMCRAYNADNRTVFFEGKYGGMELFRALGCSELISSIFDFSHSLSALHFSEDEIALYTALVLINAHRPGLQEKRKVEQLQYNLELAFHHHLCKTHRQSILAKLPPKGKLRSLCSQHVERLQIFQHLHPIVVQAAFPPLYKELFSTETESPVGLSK
Procedure: as §1, §2, §3, §4, §5, §6, §7

[3] = GAL4-mRORγ LBD / pG5-Luc in CHO cells, 2 days incubation
[4] = GAL4-hRORγ LBD / pG5-Luc in CHO cells, 2 days incubation
[5] = GAL4-mRORγ LBD luciferase reporter, CHO cells, read-out: LUC EC50 mRORγ
[6] = GAL4-hRORγ LBD luciferase reporter, CHO cells, read-out: LUC EC50 hRORγ

Row | EC50 [1, 3] | EC50 [2, 4] | EC50 [1, 5] | EC50 [2, 6] | SMILES | also measured
1 | 90 nM | 51 nM | – | – | CC(C)CCC1=CN(CCCC(=O)O)C(=O)N[C@@]1(C)c1ccc(CCC(C)(C)C)c(Cl)c1 [Example 44] | –
2 | 27 nM | 37 nM | – | – | CC(C)C1=CN(CCC(=O)O)C(=O)N[C@@]1(C)c1ccc(OCC(C)(C)C)c(Cl)c1 [Example 126] | –
3 | – | – | 52 nM | 87 nM | CC(C)CCOc1ccc([C@]2(C)NC(=O)N(CCC(=O)O)C=C2CC(C)C)c(F)c1Cl [Example 202] | –
4 | – | – | 26 nM | 22 nM | CC(C)C1=CN(C2CCCC(C(=O)O)C2)C(=O)N[C@@]1(C)c1ccc(CCC(C)(C)C)c(Cl)c1 (single isomer, unassigned) [Example 256] | –
5 | 617 nM | 435 nM | – | – | CCC(C)C1=CN(CCCC(=O)O)C(=O)NC1(C)c1ccc(CCC(C)(C)C)c(Cl)c1 (single isomer, unassigned) [Example 33] | –
6 | – | – | 14 nM | 17 nM | COCCC1=CN(c2ccc(C(=O)O)cc2)C(=O)N[C@@]1(C)c1ccc([C@H]2C[C@@H](C(C)C)C2)c(Cl)c1 [Example 318] | –
7 | – | – | 28 nM | 28 nM | CC(C)C1=CN(C2CCCC(C(=O)O)C2)C(=O)N[C@@]1(C)c1ccc(CCC(C)(C)C)c(Cl)c1 (single isomer, unassigned) [Example 254] | –
8 | – | – | 136 nM | 70 nM | CC(C)(C)CCc1ccc([C@]2(C)NC(=O)N(C3CCOCC3)C=C2[C@H]2C[C@@H](C(=O)O)C2)cc1Cl [Example 199] | –
9 | – | – | 1310 nM | 1400 nM | CC(C)(C)CCc1ccc([C@]2(C)NC(=O)N(CCC(=O)O)C=C2CCS(C)(=O)=O)cc1Cl [Example 303] | –
10 | 19 nM | 10 nM | – | – | CC(C)(C)CCc1ccc(C2(C)NC(=O)NC=C2C(C)(C)CCC(=O)O)cc1Cl (single isomer, unassigned) [Example 130, 4-{4-[3-chloro-4-(3,3-dimethyl-butyl)-phenyl]-4-methyl-2-oxo-1,2,3,4-tetrahydro-pyrimidin-5-yl}-4-methyl-pentanoic Acid] | –
11 | – | – | 16 nM | 11 nM | CC(C)C1=CN(CC(C)C(=O)O)C(=O)N[C@@]1(C)c1ccc(CCC(C)(C)C)c(Cl)c1 (single isomer, unassigned) [Example 299] | –
12 | – | – | 779 nM | 412 nM | CC(C)(C)CCc1ccc([C@]2(C)NC(=O)N(CCC(N)=O)C=C2[C@H]2C[C@@H](C(=O)O)C2)cc1Cl [Example 249] | –
13 | 13 nM | 7 nM | – | – | CC(C)C1=CN(CCc2ccc(C(=O)O)cc2)C(=O)N[C@@]1(C)c1ccc(CCC(C)(C)C)c(Cl)c1 [Example 50] | –
14 | 30 nM | > 512 nM | – | – | CC(C)C1=CN(CCC(=O)O)C(=O)N[C@@]1(C)c1ccc(CCCC(C)(C)C)c(Cl)c1 [Example 124] | hRORγ luciferase activity, %-of-control [2]: (54%)
15 | – | – | 21 nM | 14 nM | CC(C)C1=CN(c2ccc(C(=O)O)cn2)C(=O)N[C@@]1(C)c1ccc(CCC(C)(C)C)c(Cl)c1 [Example 281, 6-{(S)-4-[3-Chloro-4-(3,3-dimethyl-butyl)-phenyl]-5-isopropyl-4-methyl-2-oxo-3,4-dihydro-2H-pyrimidin-1-yl}-nicotinic Acid hydrochloride] | –
16 | – | – | 30 nM | 28 nM | CC(C)C1=CN(CCC(=O)O)C(=O)N[C@@]1(C)c1ccc([C@H]2C[C@@H](C(C)(C)C)C2)c(Cl)c1 [Example 302] | –

Row | EC50 [1, 3] | EC50 [2, 4] | EC50 [1, 5] | EC50 [2, 6] | SMILES | also measured
17 | – | – | 277 nM | 476 nM | CC(C)C1=CN(CCC(=O)O)C(=O)N[C@@]1(C)c1ccc(CC(O)C(C)(C)C)c(Cl)c1 (single isomer, unassigned) [Example 310] | –
18 | 22 nM | 21 nM | – | – | CC(C)(C)CCc1ccc(C2NC(=O)N(CCCC(=O)O)C=C2C(C)(C)C)cc1Cl (racemic) [Example 8] | –
19 | – | – | 74 nM | 51 nM | COCCC(C)(C)CC1=CN(c2ccc(C(=O)O)cc2)C(=O)N[C@@]1(C)c1ccc(CCC(C)(C)C)c(Cl)c1 [Example 209] | –
20 | 12400 nM | 15300 nM | – | – | CC1=CN(CCCC(=O)O)C(=O)N[C@]1(C)c1ccc(CCC(C)(C)C)c(Cl)c1 [Example 60] | –
21 | 20 nM | 13 nM | – | – | CC(C)(C)CCc1ccc([C@]2(C)NC(=O)N(CCCC(=O)O)C=C2C2CCOCC2)cc1Cl [Example 92] | –
22 | 1950 nM | 2940 nM | – | – | COCCOc1ccc([C@]2(C)NC(=O)N(CCC(=O)O)C=C2C(C)C)cc1Cl [Example 127] | –
23 | 21 nM | 16 nM | – | – | CC(C)C1=CN([C@H]2C[C@H](CC(=O)O)C2)C(=O)N[C@@]1(C)c1ccc(CCC(C)(C)C)c(Cl)c1 [Example 108] | –
24 | – | – | 8 nM | 14 nM | COCCC1=CN(CCC(=O)O)C(=O)N[C@@]1(C)c1ccc(C2=CCC(C)(C)CC2)c(Cl)c1 [Example 331] | –
25 | 43 nM | 40 nM | – | – | CC(C)C1=CN(CCc2ccccc2C(=O)O)C(=O)N[C@@]1(C)c1ccc(CCC(C)(C)C)c(Cl)c1 [Example 83] | –
26 | 2540 nM | 2140 nM | – | – | CC(C)C1=CN(CC(=O)O)C(=O)N[C@]1(C)c1ccc(CCC(C)(C)C)c(Cl)c1 [Example 93] | –
27 | – | – | 25 nM | 32 nM | COCC(C)C1=CN(c2ccc(C(=O)O)cc2)C(=O)N[C@@]1(C)c1ccc(CCC(C)(C)C)c(Cl)c1 (single isomer, unassigned) [Example 308] | –
28 | > 3200 nM | > 3200 nM | – | – | CC(C)C1=CN(CC(C)(C)CC(=O)O)C(=O)N[C@]1(C)c1ccc(CCC(C)(C)C)c(Cl)c1 [Example 35] | mRORγ luciferase activity, %-of-control ([1]; value in parentheses beside the > EC50 bound, vehicle-control 0.2% DMSO alone = 100%): (52%); hRORγ luciferase activity, %-of-control [2]: (51%)
29 | 17 nM | 23 nM | – | – | CC(C)C1=CN(CCCC(=O)O)C(=O)NC1(C)c1ccc(OCC(C)(C)C)c(Cl)c1 (single isomer, unassigned) [Example 12] | –
30 | 23 nM | 21 nM | – | – | CC(C)C1=CN(c2ccc(C(=O)O)cc2)C(=O)N[C@@]1(C)c1ccc(CCC(C)(C)C)c(Cl)c1 [Example 159, 4-{(S)-4-[3-chloro-4-(3,3-dimethyl-butyl)-phenyl]-5-isopropyl-4-methyl-2-oxo-3,4-dihydro-2H-pyrimidin-1-yl}-benzoic Acid] | –
31 | – | – | 23 nM | 42 nM | COc1cc(N2C=C(C(C)C)[C@](C)(c3ccc(CCC(C)(C)C)c(C(F)(F)F)c3)NC2=O)ccc1C(=O)O [Example 345] | –
